Source: patent publication US20100108083A1, “USE OF MEANS FOR TRAPPING CO2 IN A FILTER FOR PREVENTING INFLAMMATION, CANCER AND CARDIOVASCULAR DISEASES IN A SUBJECT EXPOSED TO TOBACCO SMOKE” (priority 2007, published 2010)

Experiments:
[1] = system: NF-κB p65; test: ELISA of NF-κB p65 in the nucleus of pulmonary cells of mice after CO2 inhalation; assay type: in vivo; conditions: inhaled air with CO2 content above 10%, without decrease in oxygen, versus atmospheric air
Procedure: (§1) 2/After keeping the mice for 10 minutes in the chambers at the various concentrations of CO2 stated above, the mice were sacrificed (one hour after the start of the experiment) in order to determine the proteins β-catenin and NF-κBp65 in the nucleus of their pulmonary cells.
(§2) These two proteins are recognized markers of inflammation and of cancer. They were determined on the basis of optical density using specialized kits. β-Catenin was determined by ELISA (Catenin Enzyme Immunoassay Kit, Assay designs, Ann Arbor, Mich.) following the manufacturer's instructions. The protein NF-κB p65 was determined by another ELISA assay (TrasAM NF-κB p65 nuclear DNA based ELISA, Active Motif, Rixensart, Belgium) following the manufacturer's instructions. The values obtained, presented in the diagram in FIG. 2, are expressed relative to the total amount of proteins extracted from the cell nucleus.

[2] = system: BALB/c mice; test: Plethysmography (Penh value) of mice breathing air enriched in CO2; assay type: in vivo
Procedure: 1/ BALB/c mice were placed in a closed chamber in which the proportion of CO2, at constant proportion of oxygen, was raised artificially to 2 (atmospheric air control), 5, 10 and 15% by injection of CO2 into the chamber every other minute. At each of these concentrations, non-invasive functional testing was carried out on the mice by plethysmography, according to the technique described by Hamelmann et al. (1997) Am J Respir Crit Care Med 156: 766-775). This technique involves assessing the respiratory distress of the mice by determining the Penh (enhanced pause) value.

[3] = system: β-catenin; test: ELISA of β-catenin in the nucleus of pulmonary cells of mice after CO2 inhalation; assay type: in vivo; conditions: inhaled air with CO2 content above 10%, without decrease in oxygen, versus atmospheric air
Procedure: as §1, §2

[4] = system: BALB/c mice; conditions: CO2 of tobacco smoke selectively trapped by the filter, 38 minutes inhalation
Procedure: The experiment was conducted on BALB/c mice aged from 6 to 7 weeks under in vivo conditions. The number of mice used was 32 males, divided into four groups of eight. […] Each experiment lasted 38 minutes, or typically the equivalent of the consumption of 5 cigarettes by a smoker.
The mice were sacrificed after inhalation of air for 38 minutes in the four situations described above (see also the commentary of FIG. 3) and the lungs were removed immediately for analysis.
The lungs were analysed in order to measure the activity or the secretion of six proteins that are known markers of inflammation. […] These proteins are as follows: RANTES, IL-6, TNF-alpha, MIP-2, PP2A and NE-κB p65. […] Measurements of activity or of relative concentration of these proteins were performed using the following commercial kits: Mouse TNF-alpha/TNFSF1A DuoSet (ELISA assay for the concentration of TNF-alpha); Mouse CXCL2/MIP-2 DuoSet (ELISA assay for the concentration of MIP-2), Mouse CCL5/RANTES ELISpot Kit (ELISpot assay for the secretion of RANTES); Mouse IL-6 ELISpot Kit (ELISpot assay for the secretion of IL-6), all from R&D Systems (Minneapolis, Minn., USA).

SMILES	Expression of NF-κBp65 in lung tissues [1]	Penh value, level relative to control ([2]; 15% CO2 in inhaled air at constant proportion of oxygen, versus atmospheric air control) [times]	Change of Penh value ([2]; proportion of CO2 changes from 10 to 15%)	Expression of β-catenin in lung tissues [3]	Inflammation found in mice exposed to tobacco smoke [4]
O=C=O [CO2, carbon dioxide]	very significant increase	6	doubled	very significant increase	
[K+].[OH-] [KOH solution, potassium hydroxide]					eliminated partially or even completely
